Patent US12168085B2, “Surgical system and methods of use” (priority 2021, dated 2024)

Legend:
myofibroblast formation = conditions: Ajmal et al. (2003); cited from earlier work
[1] = time to reach plasma concentrations; format: in vivo; conditions: when given preoperatively

| Compound | effect on myofibroblast formation (myofibroblast formation) | time to reach plasma concentrations [1] |
| --- | --- | --- |
| O=S(=O)([O-])CCS.[Na+] [MESNA, sodium 2-mercaptoethane sulfonate] | diminish myofibroblast formation | – |
| NC[C@H]1CC[C@H](C(=O)O)CC1 [tranexamic acid, trans-4-(aminomethyl)cyclohexanecarboxylic acid] | – | 5 to 15 min |
